Laboratory results reported in patent publication EP4501917A1, “3,4-DIHYDROQUINOXALINE-2-CARBOXIMIDE DERIVATIVE COMPOUND AND PHARMACEUTICAL COMPOSITION COMPRISING SAME FOR PREVENTING OR TREATING CANCER DISEASE” (Daegu-Gyeongbuk Medical Innovation Foundation, priority 2022, dated 2023).

Legend:
[1] = Body weight during drug administration, liver cancer model; format: in vivo, nude mice; conditions: 50 mg/kg, during the drug administration period, Huh-7 model, FIG. 7D; result in words
Experimental: (§1) In addition, a liver cancer model was established by subcutaneously transplanting Huh-7 cell lines into nude mice. After establishing the liver cancer model, the mice were divided into two groups (group 1: vehicle administration group, group 2: 50 mg/kg Example 27 compound administration group). The drug was administered once a day for 12 times. To evaluate therapeutic efficacy, tumor volume was measured before drug administration and on days 4, 7, 10, 13, and 15 after drug administration. Tumor volume (mm^3) was calculated as follows (tumor volume (mm^3) = (A X B^2)/2, where A = tumor long axis, B = tumor short axis). Body weight was measured before administration and on days 4, 7, 10, 13, and 15 after drug administration during the drug administration period. Tumor was excised on day 15 after drug treatment and body weight was measured.

[2] = test system: PC-3 cell lines; test: Prostate cancer model, PC-3 cell lines subcutaneously transplanted, tumor volume and weight; format: in vivo, nude mice; conditions: result in words
Experimental: (§2) A prostate cancer model was established by subcutaneously transplanting PC-3 cell lines into nude mice, and the mice were divided into two groups (group 1: vehicle administration group (10% DSMO, 30% PEG400, 60% DW), group 2: 50 mg/kg Example 27 compound administration group). The drug was administered orally once a day for 12 times. To evaluate the therapeutic efficacy, tumors were […] before drug administration and on days 3, 6, 8, 10, 12, and 14 after drug administration, and tumor volumes were measured. Tumor volume (mm^3) was calculated as follows (tumor volume (mm^3) = (A X B^2)/2, where A = tumor long axis, B = tumor short axis), and the results are shown in FIG. 2.
Meanwhile, on day 12 of drug administration, the tumor was removed and its weight was measured, the results are shown in FIG. 3, and a photograph of the removed tumor was taken and shown in FIG. 4.

[3] = target: T1, HDAC8 (Homo sapiens, UniProt Q9BY41); test: HDAC8 inhibitory activity analysis (in vitro), RFU analysis, HDAC Fluorogenic assay kit; format: biochemical
T1 construct: purchased BPS bioscience
T1 sequence (Q9BY41 1-377): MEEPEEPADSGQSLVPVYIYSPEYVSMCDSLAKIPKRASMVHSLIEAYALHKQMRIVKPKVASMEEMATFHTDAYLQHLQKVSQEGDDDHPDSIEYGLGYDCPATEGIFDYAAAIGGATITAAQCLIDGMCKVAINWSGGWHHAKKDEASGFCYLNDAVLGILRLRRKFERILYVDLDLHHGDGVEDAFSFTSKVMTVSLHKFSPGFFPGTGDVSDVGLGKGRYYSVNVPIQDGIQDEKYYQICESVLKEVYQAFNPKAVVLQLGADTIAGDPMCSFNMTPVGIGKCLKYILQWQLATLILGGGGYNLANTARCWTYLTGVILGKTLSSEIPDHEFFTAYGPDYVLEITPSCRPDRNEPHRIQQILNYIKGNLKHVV
Experimental: The compound of the Example was diluted to 1 mM (1% DMSO concentration) using DMSO to obtain a final concentration of 10 µM, and prepared by diluting 1/10 with assay buffer. In a 96-well black round-bottom plate, 5 µL of the diluted compound of the Example, 5 µL of the diluted HDAC substrate 2A, 5 µL of BSA (1 mg/mL), 5 µL of the HDAC8 enzyme diluted to an appropriate concentration, and 30 µL of assay buffer were added, and the enzyme reaction was performed at 37°C for 30 minutes. […] Afterwards, 50 µL of 2X HDAC developer was added to each well. After reacting for 15 minutes at room temperature, the fluorescence values at excitation wavelengths of 350-380 nm and emission wavelengths of 440-460 nm were measured using a microplate reader (Synergy Neo).

[4] = test system: Liver cancer cells Huh-7; test: Liver cancer cell growth inhibition, CellTiter-Glo Luminescent Cell Viability Assay; format: cell-based; conditions: Huh-7 cells, various concentrations, day 1, FIG. 6; result in words
Experimental: In addition, an analysis of liver cancer growth inhibitory activity was performed. Liver cancer cells Huh-7 cells were dispensed in a 96-well plate at 1 × 10^4 cells/ml, and after 20 hours, PCI34051, Example 27, and Example 35 were added at various concentrations, and cultured for 24 and 48 hours at 37°C in a 5% CO2 atmosphere. After culturing, 100 µl CellTiter-Glo Luminescent Cell Viability Assay reagent was added and the luminescence signal was measured after 0.5-1 hour. The luminescence signal was measured using IVIS [PerkinElmer, (Waltham, USA)].

[5] = Body weight during drug administration, prostate cancer model; format: in vivo, nude mice; conditions: 50 mg/kg, during the drug administration period, PC-3 model, FIG. 5; result in words
Experimental: as §2

[6] = test system: Huh-7 cell lines; test: Liver cancer model, Huh-7 cell lines subcutaneously transplanted, tumor volume and weight; format: in vivo, nude mice; conditions: result in words
Experimental: as §1

[7] = target: T2, HDAC7 (Homo sapiens, UniProt Q8WUI4); test: Selective HDAC inhibition, HDAC Fluorogenic assay kit; format: biochemical; conditions: final concentration 10 µM; HDAC substrate 2A 200 µM; positive control (1% DMSO) set to 100; read-out: HDAC7 enzyme activity (%)
T2 construct: purchased BPS bioscience
T2 sequence (Q8WUI4 1-952): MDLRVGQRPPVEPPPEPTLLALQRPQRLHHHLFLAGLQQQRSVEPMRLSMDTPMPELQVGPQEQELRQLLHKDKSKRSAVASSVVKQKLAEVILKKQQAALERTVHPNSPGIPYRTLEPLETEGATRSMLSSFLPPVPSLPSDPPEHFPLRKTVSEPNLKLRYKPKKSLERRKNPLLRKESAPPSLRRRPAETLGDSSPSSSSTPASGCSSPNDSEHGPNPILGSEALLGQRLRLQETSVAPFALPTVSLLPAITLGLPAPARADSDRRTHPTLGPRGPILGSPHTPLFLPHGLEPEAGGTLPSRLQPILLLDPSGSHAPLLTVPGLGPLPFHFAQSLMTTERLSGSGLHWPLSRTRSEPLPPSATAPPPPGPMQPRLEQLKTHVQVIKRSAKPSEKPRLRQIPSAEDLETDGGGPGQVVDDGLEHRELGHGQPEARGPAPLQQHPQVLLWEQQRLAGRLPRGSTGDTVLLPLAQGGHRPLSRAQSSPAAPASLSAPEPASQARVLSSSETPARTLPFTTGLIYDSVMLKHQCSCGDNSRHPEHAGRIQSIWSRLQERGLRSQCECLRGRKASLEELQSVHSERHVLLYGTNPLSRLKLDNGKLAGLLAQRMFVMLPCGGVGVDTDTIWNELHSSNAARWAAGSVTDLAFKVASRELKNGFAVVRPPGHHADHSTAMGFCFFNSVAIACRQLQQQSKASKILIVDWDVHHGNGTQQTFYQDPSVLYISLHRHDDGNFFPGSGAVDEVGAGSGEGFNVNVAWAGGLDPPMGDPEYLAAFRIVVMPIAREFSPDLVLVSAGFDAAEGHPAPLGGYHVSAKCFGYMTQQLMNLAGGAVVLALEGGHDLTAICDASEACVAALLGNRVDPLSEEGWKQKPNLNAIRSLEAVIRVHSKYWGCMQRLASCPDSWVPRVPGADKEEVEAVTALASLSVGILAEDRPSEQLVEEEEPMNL
Experimental: (§3) For analysis, HDAC substrate 3 was diluted in buffer to a concentration of 200 µM and used in HDAC 1, 2, 3, 6, and 10 assays, HDAC substrate 2A was diluted in buffer to a concentration of 200 µM and used in HDAC 4, 7, 9, and 11 assays, HDAC substrate 2A was diluted in buffer to a concentration of 20 µM and used in HDAC 8 assays. For the HDAC 11 assay, a dedicated buffer included in the kit was used separately, and the same buffer was used for the remaining assays. The compound of the Example was diluted to 1 mM (1% DMSO concentration) using DMSO to obtain a final concentration of 10 µM, and prepared by diluting 1/10 with assay buffer. In a 96-well black round-bottom plate, 5 µL of the diluted compound of the Example, 5 µL of the diluted HDAC substrate, 5 µL of BSA (1 mg/ml), 5 µL of the HDAC enzyme diluted to the appropriate concentration, and 30 µL of assay buffer were added, and the enzyme reaction was performed at 37°C for 30 minutes. […] Afterwards, 50 µL of 2X HDAC developer was added to each well. After reacting for 15 minutes at room temperature, the fluorescence values at excitation wavelengths of 350-380 nm and emission wavelengths of 440-460 nm were measured using a microplate reader (Synergy Neo).

[8] = target: HDAC9 (Homo sapiens, UniProt Q9UKV0); test: as above; conditions: read-out: HDAC9 enzyme activity (%)
HDAC9, sequence (Q9UKV0 whole entry): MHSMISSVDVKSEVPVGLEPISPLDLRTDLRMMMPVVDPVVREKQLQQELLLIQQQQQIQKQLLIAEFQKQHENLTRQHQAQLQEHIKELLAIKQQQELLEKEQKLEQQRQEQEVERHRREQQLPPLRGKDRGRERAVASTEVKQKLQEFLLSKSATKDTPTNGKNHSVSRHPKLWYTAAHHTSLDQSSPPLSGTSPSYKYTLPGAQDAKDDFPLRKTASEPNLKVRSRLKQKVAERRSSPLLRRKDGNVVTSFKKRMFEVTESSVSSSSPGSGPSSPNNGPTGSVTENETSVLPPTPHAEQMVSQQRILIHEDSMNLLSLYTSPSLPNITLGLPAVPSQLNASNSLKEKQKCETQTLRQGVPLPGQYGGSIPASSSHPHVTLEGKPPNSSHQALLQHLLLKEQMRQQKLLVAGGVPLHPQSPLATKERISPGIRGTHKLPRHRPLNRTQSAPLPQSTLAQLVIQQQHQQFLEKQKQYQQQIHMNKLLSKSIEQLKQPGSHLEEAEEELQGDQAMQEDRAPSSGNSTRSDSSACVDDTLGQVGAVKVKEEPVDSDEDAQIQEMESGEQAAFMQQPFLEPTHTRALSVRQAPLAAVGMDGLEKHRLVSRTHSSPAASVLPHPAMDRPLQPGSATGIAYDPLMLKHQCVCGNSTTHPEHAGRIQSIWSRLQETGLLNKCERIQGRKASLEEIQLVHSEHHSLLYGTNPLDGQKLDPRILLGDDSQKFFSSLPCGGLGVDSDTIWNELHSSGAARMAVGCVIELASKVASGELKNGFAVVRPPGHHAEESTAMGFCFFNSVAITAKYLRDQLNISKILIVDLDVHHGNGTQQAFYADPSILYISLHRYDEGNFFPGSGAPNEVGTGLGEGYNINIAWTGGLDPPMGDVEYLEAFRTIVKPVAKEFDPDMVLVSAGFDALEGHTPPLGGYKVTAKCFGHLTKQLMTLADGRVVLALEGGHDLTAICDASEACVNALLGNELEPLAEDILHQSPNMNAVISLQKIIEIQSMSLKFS
Experimental: as §3

[9] = target: HDAC4 (Homo sapiens, UniProt P56524); test: as above; conditions: read-out: HDAC4 enzyme activity (%)
HDAC4, sequence (P56524 whole entry): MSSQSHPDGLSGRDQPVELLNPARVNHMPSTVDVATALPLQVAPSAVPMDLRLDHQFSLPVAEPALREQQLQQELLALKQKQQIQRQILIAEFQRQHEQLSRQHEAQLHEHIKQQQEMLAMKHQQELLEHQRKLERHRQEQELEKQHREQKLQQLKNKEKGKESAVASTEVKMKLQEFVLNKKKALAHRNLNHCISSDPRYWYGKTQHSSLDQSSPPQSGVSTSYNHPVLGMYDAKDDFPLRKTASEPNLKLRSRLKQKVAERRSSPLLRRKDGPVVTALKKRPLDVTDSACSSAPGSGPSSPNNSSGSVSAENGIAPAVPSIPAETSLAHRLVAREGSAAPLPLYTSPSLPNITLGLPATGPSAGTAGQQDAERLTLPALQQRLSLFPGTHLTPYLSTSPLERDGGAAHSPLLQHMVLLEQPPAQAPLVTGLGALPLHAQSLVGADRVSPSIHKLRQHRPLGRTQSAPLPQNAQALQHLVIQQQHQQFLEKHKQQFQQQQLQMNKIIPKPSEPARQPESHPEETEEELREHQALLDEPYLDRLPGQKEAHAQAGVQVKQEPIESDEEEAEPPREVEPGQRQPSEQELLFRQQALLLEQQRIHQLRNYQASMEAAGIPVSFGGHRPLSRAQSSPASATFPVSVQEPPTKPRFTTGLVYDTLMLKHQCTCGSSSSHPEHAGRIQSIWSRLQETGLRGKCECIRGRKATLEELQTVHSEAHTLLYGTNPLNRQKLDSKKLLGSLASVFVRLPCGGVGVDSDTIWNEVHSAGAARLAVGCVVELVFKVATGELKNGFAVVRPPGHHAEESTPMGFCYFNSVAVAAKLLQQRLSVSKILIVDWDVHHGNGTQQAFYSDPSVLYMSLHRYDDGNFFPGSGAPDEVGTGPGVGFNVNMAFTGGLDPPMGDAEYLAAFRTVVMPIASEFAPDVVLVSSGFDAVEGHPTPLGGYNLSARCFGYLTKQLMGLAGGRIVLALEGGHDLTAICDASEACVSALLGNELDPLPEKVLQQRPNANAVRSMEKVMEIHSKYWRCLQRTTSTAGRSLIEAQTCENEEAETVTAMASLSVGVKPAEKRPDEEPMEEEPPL
Experimental: as §3

RFU (%) ([3]; compound final concentration 10 µM, HDAC substrate 2A 20 µM, positive control (1% DMSO) set to 100, lower = more inhibition): 7.62% | remaining activity at 10 µM [7]: 91.2% | remaining activity at 10 µM [8]: 66.5% | remaining activity at 10 µM [9]: 98.2%
Compound: Cc1cc2nc(C(=O)NCCc3c[nH]c4ccc(O)cc34)c(=O)n(C[C@H](O)[C@H](O)[C@H](O)CO)c2cc1C [Example 27, N-(2-(5-hydroxy-1H-indol-3-yl)ethyl)-6,7-dimethyl-3-oxo-4-((2S,3S,4R)-2,3,4,5-tetrahydroxypentyl)-3,4-dihydroquinoxaline-2-carboxamide]
body weight [1]: No rapid weight loss was observed | tumor volume ([2]; 50 mg/kg orally once a day for 12 times, up to day 14, *p<0.05 compared with vehicle, FIG. 2): significantly reduced tumor volume growth rate compared to group 1 | tumor weight ([2]; 50 mg/kg orally once a day, tumor removed on day 12, ***p<0.0005 compared with vehicle, FIG. 3): vehicle administration group (group 1) had a significantly higher tumor weight | inhibitory activity against HDAC8 ([3]; result in words, summary of Table 2, 10 µM): inhibitory activity similar to TSA or SAHA | cell viability [4]: concentration-dependent inhibition of cancer cell viability | body weight of the mice [5]: no rapid weight loss was confirmed | tumor volume ([6]; 50 mg/kg once a day for 12 times, until day 15, **p<0.005 compared with vehicle, FIG. 7A): tumor growth inhibitory effect | tumor weight ([6]; 50 mg/kg, tumor removed on day 15, ***p<0.0005 compared with vehicle, FIGS. 7B and 7C): tumor weight of the vehicle group was significantly higher
